As a reminder, the EC50 is the midpoint of the concentration-response curve.

From patent US11866450B2, “Modulators of Cystic Fibrosis Transmembrane Conductance regulator, pharmaceutical compositions, methods of treatment, and process for making the modulators” (priority 2018, dated 2024) come the findings set out here.

This assay deals with CFTR-mediated chloride transport (Homo sapiens, UniProt P13569). It counts as cell-based. The conditions noted are these: enteroid cells incubated with test compound 18-24 hours, acute 10 μM forskolin and 300 nM Compound III; for Max. Activity: % of chloride transport with 3 μM Compound A, 3 μM Compound II and 300 nM acute Compound III triple combination control. The method, boiled down:
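Human intestinal enteroid cells incubated with compound 18–24 h at 37° C., then membrane potential dye (FLIPR) read 15 min after chloride-free stimulation with 10 μM forskolin, 100 μM IBMX and 300 nM Compound III. AUC expressed as % of triple-combination control (3 μM Compound A, 3 μM Compound II, 300 nM Compound III).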

Structures are written as SMILES.

Chain of CFTR-mediated chloride transport (P13569 whole entry, looked up): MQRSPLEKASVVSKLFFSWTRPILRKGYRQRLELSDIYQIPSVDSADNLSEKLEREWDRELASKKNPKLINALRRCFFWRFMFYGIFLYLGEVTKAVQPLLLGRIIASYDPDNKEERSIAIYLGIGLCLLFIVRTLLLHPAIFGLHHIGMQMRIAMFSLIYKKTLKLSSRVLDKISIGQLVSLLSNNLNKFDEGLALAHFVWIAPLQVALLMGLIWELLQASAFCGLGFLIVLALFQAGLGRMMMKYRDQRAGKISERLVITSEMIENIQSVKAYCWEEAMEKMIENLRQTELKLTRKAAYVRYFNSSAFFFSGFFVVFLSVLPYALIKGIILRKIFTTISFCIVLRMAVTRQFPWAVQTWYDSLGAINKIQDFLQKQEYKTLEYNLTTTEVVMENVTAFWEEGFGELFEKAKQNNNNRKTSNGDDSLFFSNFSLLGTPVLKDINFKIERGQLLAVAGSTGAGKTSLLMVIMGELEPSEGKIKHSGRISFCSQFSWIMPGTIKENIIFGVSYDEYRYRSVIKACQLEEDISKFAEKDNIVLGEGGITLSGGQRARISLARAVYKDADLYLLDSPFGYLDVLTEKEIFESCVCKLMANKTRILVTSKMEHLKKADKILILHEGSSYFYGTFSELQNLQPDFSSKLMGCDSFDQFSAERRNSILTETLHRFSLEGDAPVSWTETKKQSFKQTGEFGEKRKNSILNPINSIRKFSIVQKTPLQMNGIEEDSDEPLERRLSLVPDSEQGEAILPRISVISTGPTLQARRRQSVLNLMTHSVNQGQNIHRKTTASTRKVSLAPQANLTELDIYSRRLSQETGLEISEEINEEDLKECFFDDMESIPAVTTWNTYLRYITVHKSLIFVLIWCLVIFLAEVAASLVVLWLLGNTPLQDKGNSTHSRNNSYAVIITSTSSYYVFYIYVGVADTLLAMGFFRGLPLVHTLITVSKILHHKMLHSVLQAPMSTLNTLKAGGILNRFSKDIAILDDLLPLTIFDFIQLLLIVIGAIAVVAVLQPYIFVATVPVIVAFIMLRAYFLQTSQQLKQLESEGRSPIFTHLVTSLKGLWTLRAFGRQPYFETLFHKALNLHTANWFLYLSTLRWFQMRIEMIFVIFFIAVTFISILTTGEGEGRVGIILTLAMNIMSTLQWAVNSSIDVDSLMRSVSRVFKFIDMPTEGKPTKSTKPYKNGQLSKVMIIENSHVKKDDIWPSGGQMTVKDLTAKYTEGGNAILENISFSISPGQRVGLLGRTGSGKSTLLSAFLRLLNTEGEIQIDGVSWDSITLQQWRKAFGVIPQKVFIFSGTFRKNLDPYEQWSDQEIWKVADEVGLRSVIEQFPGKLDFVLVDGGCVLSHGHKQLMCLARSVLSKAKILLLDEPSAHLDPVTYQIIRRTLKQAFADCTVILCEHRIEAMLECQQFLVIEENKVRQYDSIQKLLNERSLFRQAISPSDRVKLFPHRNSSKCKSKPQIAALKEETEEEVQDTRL

On to `CC1(C)C[C@H]2C[C@@H](F)CNc3cccc(n3)S(=O)(=O)NC(=O)c3ccc(-n4ccc(OCCC5C6(CC6)C56CC6)n4)nc3N1C2` (single isomer, unassigned) [Compound 309, 8-[3-(2-{Dispiro[2.0.2.1]heptan-7-yl}ethoxy)-1H-pyrazol-1-yl]-16-fluoro-12,12-dimethyl-2λ^6-thia-3,9,11,18,23-pentaazatetracyclo[17.3.1.111,14.05,10]tetracosa-1(22),5,7,9,19(23),20-hexaene-2,2,4-trione], for which the concentration for a half-maximal effect (EC50) is under 1000 nM and the “Max. Activity” value is “+++ (+++ is >60%)”.
`CC1(C)C[C@H]2CCCn3ccc(n3)S(=O)(=O)NC(=O)c3ccc(N4CCC(OCCC5(C(F)(F)F)CC5)C4=O)nc3N1C2` (stereo in doubt) [Compound 183, 20,20-Dimethyl-4-(2-oxo-3-{2-[1-(trifluoromethyl)cyclopropyl]ethoxy}pyrrolidin-1-yl)-10λ^6-thia-1,3,9,14,22-pentaazatetracyclo[16.2.1.111,14.02,7]docosa-2,4,6,11(22),12-pentaene-8,10,10-trione]: the EC50 is under 1000 nM and the “Max. Activity” value is recorded as “++ (++ is 30-60%)”.
Regarding `CC(C)(C)CCC1CCN(c2ccc3c(n2)N2C[C@H](CCCn4ccc(n4)S(=O)(=O)NC3=O)CC2(C)C)C1=O` (stereo in doubt) [Compound 184, 4-[3-(3,3-dimethylbutyl)-2-oxopyrrolidin-1-yl]-20,20-dimethyl-10λ^6-thia-1,3,9,14,22-pentaazatetracyclo[16.2.1.111,14.02,7]docosa-2,4,6,11(22),12-pentaene-8,10,10-trione], the EC50 was 1000 to 3000 nM and the “Max. Activity” value was “+ (+ is <30%)”.
As for `CN1CCC[C@H]2CCC(C)(C)N2c2nc(-n3ccc(OCCC4(C(F)(F)F)CC4)n3)ccc2C(=O)NS(=O)(=O)c2cccc1n2` [Compound 10, (15S)-12,12,19-trimethyl-8-(3-{2-[1-(trifluoromethyl)cyclopropyl]ethoxy}-1H-pyrazol-1-yl)-2λ^6-thia-3,9,11,19,24-pentaazatetracyclo[18.3.1.05,10.011,15]tetracosa-1(24),5(10),6,8,20,22-hexaene-2,2,4-trione], the EC50 was over 3000 nM and the “Max. Activity” value is on record as “+ (+ is <30%)”.
`CN1CCC[C@@H]2CCC(C)(C)N2c2nc(-n3ccc(OCCC4(C(F)(F)F)CC4)n3)ccc2C(=O)NS(=O)(=O)c2cccc1n2` [Compound 11, (15R)-12,12,19-trimethyl-8-(3-{2-[1-(trifluoromethyl)cyclopropyl]ethoxy}-1H-pyrazol-1-yl)-2λ^6-thia-3,9,11,19,24-pentaazatetracyclo[18.3.1.05,10.011,15]tetracosa-1(24),5(10),6,8,20,22-hexaene-2,2,4-trione]: the EC50 is under 1000 nM and the “Max. Activity” value is “+++ (+++ is >60%)”.
In the same order, the values of `CC1(C)C[C@H]2CCCNc3cccc(n3)S(=O)(=O)NC(=O)c3ccc(-n4ccc(OCCC5(C(F)(F)F)CC5)n4)nc3N1C2` [Compound 13, (14R)-12,12-dimethyl-8-(3-{2-[1-(trifluoromethyl)cyclopropyl]ethoxy}-1H-pyrazol-1-yl)-2λ^6-thia-3,9,11,18,23-pentaazatetracyclo[17.3.1.111,14.05,10]tetracosa-1(23),5,7,9,19,21-hexaene-2,2,4-trione] are 1000 to 3000 nM and “+ (+ is <30%)”.
As to `CC1(C)C[C@@H]2CCCNc3cccc(n3)S(=O)(=O)NC(=O)c3ccc(-n4ccc(OCCC5(C(F)(F)F)CC5)n4)nc3N1C2` [Compound 14, (14S)-12,12-dimethyl-8-(3-{2-[1-(trifluoromethyl)cyclopropyl]ethoxy}-1H-pyrazol-1-yl)-2λ^6-thia-3,9,11,18,23-pentaazatetracyclo[17.3.1.111,14.05,10]tetracosa-1(23),5,7,9,19,21-hexaene-2,2,4-trione], the EC50 was under 1000 nM and the “Max. Activity” value was “+++ (+++ is >60%)”.
In the case of `CC1(C)CC[C@@H]2CCCNc3cccc(n3)S(=O)(=O)NC(=O)c3ccc(-n4ccc(OCCC5(C(F)(F)F)CC5)n4)nc3N21` [Compound 33, (15S)-12,12-Dimethyl-8-(3-{2-[1-(trifluoromethyl)cyclopropyl]ethoxy}-1H-pyrazol-1-yl)-2λ^6-thia-3,9,11,19,24-pentaazatetracyclo[18.3.1.05,10.011,15]tetracosa-1(23),5,7,9,20(24),21-hexaene-2,2,4-trione], the EC50 was over 3000 nM and the “Max. Activity” value was “+ (+ is <30%)”.
Take `CC1(C)CC[C@H]2CCCNc3cccc(n3)S(=O)(=O)NC(=O)c3ccc(-n4ccc(OCCC5(C(F)(F)F)CC5)n4)nc3N21` [Compound 34, (15R)-12,12-dimethyl-8-(3-{2-[1-(trifluoromethyl)cyclopropyl]ethoxy}-1H-pyrazol-1-yl)-2λ^6-thia-3,9,11,19,24-pentaazatetracyclo[18.3.1.05,10.011,15]tetracosa-1(23),5,7,9,20(24),21-hexaene-2,2,4-trione]: the EC50 was under 1000 nM and the “Max. Activity” value is given as “+++ (+++ is >60%)”.
The corresponding values for `CC1CCC2CN(c3nc(-n4ccc(OCCC5(C(F)(F)F)CC5)n4)ccc3C(=O)NS(=O)(=O)c3cccc(n3)N1)C(C)(C)C2` (stereo not drawn) [Compound 35, 12,12,17-trimethyl-8-(3-{2-[1-(trifluoromethyl)cyclopropyl]ethoxy}-1H-pyrazol-1-yl)-2λ^6-thia-3,9,11,18,23-pentaazatetracyclo[17.3.1.111,14.05,10]tetracosa-1(23),5(10),6,8,19,21-hexaene-2,2,4-trione] are under 1000 nM and “+++ (+++ is >60%)”.
As to `CC1CCC2CN(c3nc(-n4ccc(OCCC5(C(F)(F)F)CC5)n4)ccc3C(=O)NS(=O)(=O)c3cccc(n3)N1)C(C)(C)C2` (stereo not drawn) [Compound 36, 12,12,17-trimethyl-8-(3-{2-[1-(trifluoromethyl)cyclopropyl]ethoxy}-1H-pyrazol-1-yl)-2λ^6-thia-3,9,11,18,23-pentaazatetracyclo[17.3.1.111,14.05,10]tetracosa-1(23),5(10),6,8,19,21-hexaene-2,2,4-trione], the EC50 is under 1000 nM and the “Max. Activity” value is recorded as “+++ (+++ is >60%)”.
The corresponding values for `CC1(C)CCC2CNc3cccc(n3)S(=O)(=O)NC(=O)c3ccc(-n4ccc(OCCC5(C(F)(F)F)CC5)n4)nc3N21` (stereo not drawn) [Compound 41, 7,7-dimethyl-11-(3-{2-[1-(trifluoromethyl)cyclopropyl]ethoxy}-1H-pyrazol-1-yl)-17λ^6-thia-2,8,10,16,22-pentaazatetracyclo[16.3.1.04,8.09,14]docosa-1(22),9,11,13,18,20-hexaene-15,17,17-trione] are over 3000 nM and “+ (+ is <30%)”.
Consider `CC1(C)CC2CCCNc3cccc(n3)S(=O)(=O)NC(=O)c3ccc(-n4ccc(OCC5C(C)(C)C5(C)C)n4)nc3N1C2` (stereo not drawn) [Compound 42, 12,12-dimethyl-8-{3-[(2,2,3,3-tetramethylcyclopropyl)methoxy]-1H-pyrazol-1-yl}-2λ^6-thia-3,9,11,18,23-pentaazatetracyclo[17.3.1.111,14.05,10]tetracosa-1(22),5,7,9,19(23),20-hexaene-2,2,4-trione], for which the EC50 was under 1000 nM and the “Max. Activity” value is given as “+++ (+++ is >60%)”.
Regarding `CC1(C)C[C@H]2CCCNc3cccc(n3)S(=O)(=O)NC(=O)c3ccc(-n4ccc(OCCC(C5CC5)C5CC5)n4)nc3N1C2` [Compound 65, (14R)-8-[3-(3,3-dicyclopropylpropoxy)-1H-pyrazol-1-yl]-12,12-dimethyl-2λ^6-thia-3,9,11,18,23-pentaazatetracyclo[17.3.1.111,14.05,10]tetracosa-1(22),5,7,9,19(23),20-hexaene-2,2,4-trione], the EC50 was under 1000 nM and the “Max. Activity” value is given as “++ (++ is 30-60%)”.
In the same order, the values of `CC(C)(C)CCC1CCN(c2ccc3c(n2)N2C[C@@H](CCCNc4cccc(n4)S(=O)(=O)NC3=O)CC2(C)C)C1=O` (stereo partly drawn) [Compound 79, (14S)-8-[3-(3,3-dimethylbutyl)-2-oxopyrrolidin-1-yl]-12,12-dimethyl-2λ^6-thia-3,9,11,18,23-pentaazatetracyclo[17.3.1.111,14.05,10]tetracosa-1(23),5,7,9,19,21-hexaene-2,2,4-trione] are under 1000 nM and “++ (++ is 30-60%)”.
As to `CC1(C)C[C@H]2CCCn3ccc(n3)S(=O)(=O)NC(=O)c3ccc(-n4ccc(OCCC5(C(F)(F)F)CC5)n4)nc3N1C2` [Compound 84, (18R)-20,20-Dimethyl-4-(3-{2-[1-(trifluoromethyl)cyclopropyl]ethoxy}-1H-pyrazol-1-yl)-10λ^6-thia-1,3,9,14,22-pentaazatetracyclo[16.2.1.111,14.02,7]docosa-2,4,6,11(22),12-pentaene-8,10,10-trione], the EC50 is over 3000 nM and the “Max. Activity” value is listed as “+ (+ is <30%)”.
Consider `CC1(C)C[C@@H]2CCCn3ccc(n3)S(=O)(=O)NC(=O)c3ccc(-n4ccc(OCCC5(C(F)(F)F)CC5)n4)nc3N1C2` [Compound 85, (18S)-20,20-dimethyl-4-(3-{2-[1-(trifluoromethyl)cyclopropyl]ethoxy}-1H-pyrazol-1-yl)-10λ^6-thia-1,3,9,14,22-pentaazatetracyclo[16.2.1.111,14.02,7]docosa-2,4,6,11(22),12-pentaene-8,10,10-trione], for which the EC50 is under 1000 nM and the “Max. Activity” value is “+++ (+++ is >60%)”.
As to `CC1CN(c2ccc3c(n2)N2C[C@@H](CCCNc4cccc(n4)S(=O)(=O)NC3=O)CC2(C)C)C(=O)C1CCC(C)(C)C` (stereo partly drawn) [Compound 97, (14S)-8-[3-(3,3-dimethylbutyl)-4-methyl-2-oxopyrrolidin-1-yl]-12,12-dimethyl-2λ^6-thia-3,9,11,18,23-pentaazatetracyclo[17.3.1.111,14.05,10]tetracosa-1(22),5,7,9,19(23),20-hexaene-2,2,4-trione], the EC50 was under 1000 nM and the “Max. Activity” value is reported as “+++ (+++ is >60%)”.
